From patent publication US5446157A, “Boron difluoride compounds useful in photodynamic therapy and production of laser light” (priority 1993, dated 1995)
Where “and” joins values, the source holds several entries; their conditions need not be identical. Equal entries are not always repeated. Entries after “also recorded” stand apart in the source; their conditions may differ. Structures can show the parent of a compound that is named as a salt.

Tests used:
[1] = UV light absorption (λmax, log ε); assay type: physicochemical; details: for log ε: solvent as for λmax (ethanol except where noted); for absorption shift: in comparison with 8-substituted peralkylated structures (7b, g, k)
Method: Each recorded UV absorption was restricted to the highest wave length. Fluorescence quantum yields of the dyes were determined for ethanol solutions with excitation at 450 and 460 nm by reference to acridine orange, .PHI.0.46, in ethanol; for the dye 7p the reference was R-6G, <P 0.90. […] Melting points were obtained from a Mel-Temp II device and were uncorrected. The solvent for ^1 H NMR spectra was chloroform-d with tetramethylsilane as an internal standard. Elemental analyses were obtained from Midwest Micro Lab, Indianapolis, Ind. and Galbraith Laboratories, Inc., Knoxville, Tenn. Solvents were removed by rotary evaporation under reduced pressure unless indicated otherwise. Column chromatography was performed on silica gel.
5 × 10^-6 M in ethanol except where noted otherwise.

[2] = Fluorescence (λf, quantum yield); assay type: physicochemical; details: for .PHI.f (fluorescence quantum yield): ethanol, excitation 450 and 460 nm, reference acridine orange
Method: Instruments for spectroscopic measurements included: Perkin-Elmer 1600 FTIR, Varian Gernini 300 NMR, Hewlett-Packard 5985 (70 eV) GC-MS, Cary 17 (UV), and Perkin-Elmer LS-5B Luminescence spectrometer. A dye laser was constructed and operated in the non-flowing (static) mode and had no tuning capability. […] Laser energy outputs were measured with an accuracy of ±5% by a Scientech 365 power and energy meter.
Light absorption, luminescence, and laser activity properties for the dyes 7 are described in Table VI. Each recorded UV absorption was restricted to the highest wave length. Fluorescence quantum yields of the dyes were determined for ethanol solutions with excitation at 450 and 460 nm by reference to acridine orange, .PHI.0.46, in ethanol; for the dye 7p the reference was R-6G, <P 0.90. Melting points were obtained from a Mel-Temp II device and were uncorrected. The solvent for ^1 H NMR spectra was chloroform-d with tetramethylsilane as an internal standard. Elemental analyses were obtained from Midwest Micro Lab, Indianapolis, Ind. and Galbraith Laboratories, Inc., Knoxville, Tenn. Solvents were removed by rotary evaporation under reduced pressure unless indicated otherwise. Column chromatography was performed on silica gel. Molecular weights were confirmed by EI-MS for the pyrrole 4j 193 and for laser dyes 7d 346, 7e 374, 7g 374, 7i 342, 7j 314 and 7x 360. IR absorption data satisfactorily supported structure assignments for the laser dyes 7.
^[b] 2 × 10^-4 M in ethanol except where noted otherwise.

| Structure (SMILES) | λmax ([1]; 5 × 10^-6 M in ethanol) [nm] | log ε [1] | λf ([2]; 2 × 10^-4 M in ethanol) [nm] | .PHI.f (fluorescence quantum yield) [2] | further results |
| --- | --- | --- | --- | --- | --- |
| CCCCC1=C(C)C2=C(C)c3c(C)c(CCCC)c(C)n3[B-](F)(F)[N+]2=C1C [Compound 7e] | 518 | 4.92 | 550 | 0.90 | – |
| CC1=[N+]2C(=Cc3c(-c4ccccc4)c(-c4ccccc4)c(C)n3[B-]2(F)F)C(c2ccccc2)=C1c1ccccc1 [Compound 7v, 1,2,6,7-tetraphenyl-3,5-dimethylpyrromethene-BF2 complex] | 552 | 4.91 | 590 | 0.69 | – |
| CC1=C2C3=C(CCC3)C(C)=[N+]2[B-](F)(F)n2c(C)c3c(c21)CCC3 [Compound 7j, 1,2,6,7-bistrimethylene-3,5,8-trimethylpyrromethene-BF2 complex] | 512 | > 4.8 and 4.82 | 535 | – | – |
| CCC1=C(C)C2=C(COC(C)=O)c3c(C)c(CC)c(C)n3[B-](F)(F)[N+]2=C1C [Compound 7r] | 543 | 4.89 | 575 | 0.74 | – |
| CC1=C(C(C)(C)C)C(C)=[N+]2C1=C(C)c1c(C)c(C(C)(C)C)c(C)n1[B-]2(F)F [Compound 7g] | 525 | 4.83 | 567 | 0.77 | – |
| COc1ccc(C2=C3C(C)=CC(C)=[N+]3[B-](F)(F)n3c(C)cc(C)c32)cc1 [Compound 7t, 1,3,5,7-tetramethyl-8-p-methoxyphenylpyrromethene-BF2 complex] | 497 | 4.86 | 521 | 0.63 | – |
| CCC1=C(C)C2=C(C#N)c3c(C)c(CC)c(C)n3[B-](F)(F)[N+]2=C1C [Compound 7bb, 1,3,5,7-Tetramethyl-2,6-diethyl-8-cyanopyrromethene-BF2 complex] | – | 4.72 | – | 0.55 | λmax ([1]; 2 × 10^-4 M in p-dioxan): 580 nm; λf ([2]; 2 × 10^-4 M in p-dioxan): 620 nm |
| CCC1=C(C)C2=C(C(C)C)c3c(C)c(CC)c(C)n3[B-](F)(F)[N+]2=C1C [Compound 7p, 1,3,5,7-tetramethyl-2,6-diethyl-8-isopropylpyrromethene-BF2 complex] | 527 | 4.84 | 562 | – | fluorescence [2]: large reduction in fluorescence; also recorded: absence of fluorescence; .PHI.f ([2]; with reference to R-6G .PHI. 0.90): 0.07 |
| Cc1nc2n(c1C)[B-](F)(F)[n+]1c-2[nH]c(C)c1C [Compound 21-BF3] | – | – | – | – | .THETA.f ([2]; Lewis acid salt 21-BF3): 0.93; λf ([2]; Lewis acid salt 21-BF3): 377 nm |
| CC1=[N+]2C(=Cc3c(-c4ccccc4)cc(C)n3[B-]2(F)F)C(c2ccccc2)=C1 [Compound 7w, 1,7-diphenyl-3,5-dimethylpyrromethene-BF2 complex] | 521 | 4.92 | 551 | 0.61 | – |
| CC1=C2CCCCC2=[N+]2C1=C(C)c1c(C)c3c(n1[B-]2(F)F)CCCC3 [Compound 7i] | 522 | > 4.8 and 4.91 | 552 | – | – |
| CCOC(=O)C1=C(C)C2=C(C#N)c3c(C)c(C(=O)OCC)c(C)n3[B-](F)(F)[N+]2=C1C [Compound 7aa, diethyl 1,3,5,7-tetramethyl-8-cyanopyrromethene-2,6-dicarboxylate-BF2 complex] | – | 4.98 | – | 0.82 | λmax ([1]; 2 × 10^-4 M in p-dioxan): 556 nm; λf ([2]; 2 × 10^-4 M in p-dioxan): 589 nm |
| CCC1=C(C)C2=Cc3c(C)c(CC)c(C)n3[B-](F)(F)[N+]2=C1C [Compound 11] | – | – | – | – | .PHI.f ([2]; solvent not stated): 0.81 |
| CC1=C(C(C)C)C(C)=[N+]2C1=C(C)c1c(C)c(C(C)C)c(C)n1[B-]2(F)F [Compound 7f] | 516 | 4.85 | 548 | 0.67 | – |
| CCCC1=C(C)C2=C(C)c3c(C)c(CCC)c(C)n3[B-](F)(F)[N+]2=C1C [Compound 7d, 2,6-Di-n-propyl-1,3,5,7,8-pentamethylpyrromethene-BF2 complex] | 517 | 4.89 | 549 | 0.99 | – |
| CCC1=C(C)C2=C(C3CCCCC3)c3c(C)c(CC)c(C)n3[B-](F)(F)[N+]2=C1C [Compound 7q, 1,3,5,7-tetramethyl-2,6-diethyl-8-cyclohexylpyrromethene-BF2 complex] | 516 | 4.81 | 526 | 0.23 | – |
| CCC1=C(CC)C(C)=[N+]2C1=C(C)c1c(CC)c(CC)c(C)n1[B-]2(F)F [Compound 7k, 1,2,6,7-tetraethyl-3,5,8-trimethylpyrromethene BF2 complex] | 521 | 4.89 | 554 | 0.75 | – |
| COC1=C(C)C(C)=[N+]2C1=C(C)c1c(OC)c(C)c(C)n1[B-]2(F)F [Compound 7n, 1,7-dimethoxy-2,3,5,6,8-pentamethylpyrromethene-BF2 complex] | 485 | 4.85 | 522 | 0.84 | – |
| CCC1=C(C)C2=Cc3c(C)c(CC)c(C)n3[B-](CC)(CC)[N+]2=C1C [Compound 10, 1,3,5,7-tetramethyl-2,6-diethylpyrromethene-B(CH2 CH3)2 complex, reference compound] | – | – | – | – | .PHI.f ([2]; solvent not stated): 0.31 |
| CC1=C(c2ccccc2)C(C)=[N+]2C1=C(C)c1c(C)c(-c3ccccc3)c(C)n1[B-]2(F)F [Compound 7l] | 519 | 4.90 | 559 | 0.43 | – |
| CC1=C(C)C(C)=[N+]2C1=Cc1c(C)c(C)c(C)n1[B-]2(F)F [Compound 7z, 1,2,3,5,6,7-hexamethylpyrromethene-BF2 complex] | 528 | 4.84 | 552 | 0.56 | absorption shift [1]: slight bathochromic shift in absorption; fluorescence [2]: erratic effect on fluorescence |
| CC1=C(C(C)(C)C)C(C)=[N+]2C1=Cc1c(C)c(C(C)(C)C)c(C)n1[B-]2(F)F [Compound 7x, 1,3,5,7-tetramethyl-2,6-di-tert-butylpyrromethene-BF2 complex] | 527 | 4.93 | 554 | 0.84 | absorption shift [1]: slight bathochromic shift in absorption; fluorescence [2]: erratic effect on fluorescence |
| CCC1=C(C)C(=Cc2[nH]c(C)c(CC)c2C)N=C1C [Compound 9, 3,5,3',5'-tetramethyl-4,4'-diethylpyrromethene hydrobromide, reference compound] | – | – | – | – | .PHI.f ([2]; solvent not stated): 4.3×10^-4 |
| CCC1=C(C)C2=C(c3ccc(N(C)C)cc3)c3c(C)c(CC)c(C)n3[B-](F)(F)[N+]2=C1C [Compound 7s] | 519 | 4.95 | 575 | 0.04 | – |
| CC1=C2C=C3CCCCC3=[N+]2[B-](F)(F)n2c1cc1c2CCCC1 [Compound 7h, 2,3,6,7-bistetramethylene-8-methylpyrromethene-BF2 complex] | 535 | > 4.8 and 4.93 | 560 | – | – |
| CCC1=C(CC)C(C)=[N+]2C1=Cc1c(CC)c(CC)c(C)n1[B-]2(F)F [Compound 7y, 1,2,6,7-tetraethyl-3,5-dimethylpyrromethene-BF2 complex] | 529 | 4.89 | 554 | 0.70 | absorption shift [1]: slight bathochromic shift in absorption; fluorescence [2]: erratic effect on fluorescence |
| CCC1=C(c2ccccc2)C2=Cc3c(-c4ccccc4)c(CC)c(C)n3[B-](F)(F)[N+]2=C1C [Compound 7u] | 540 | 5.00 | 564 | 0.60 | – |
| CC(=O)NC1=C(C)C2=C(C)c3c(C)c(NC(C)=O)c(C)n3[B-](F)(F)[N+]2=C1C [Compound 7m] | – | 4.63 | – | 0.17 | λmax ([1]; 5 × 10^-6 M in trifluoroethanol): 498 nm; λf ([2]; 2 × 10^-4 M in trifluoroethanol): 542 nm |
| CCC1=C(C)C2=C(CC)c3c(C)c(CC)c(C)n3[B-](F)(F)[N+]2=C1C [Compound 7o, 1,3,5,7-tetramethyl-2,6,8-triethylpyrromethene-BF2 complex] | 520 | 4.92 | 546 | 0.84 | – |
